A word on the viscosity: it is the internal friction of a fluid under shear.

Molecules are shown by their SMILES. Numbers after ± are expanded uncertainties.

For the data set the following is noted: 101.33 kPa, Liquid; for viscosity: Capillary tube (Ostwald / Ubbelohde) method; for electrical conductivity: Wayne-Kerr 6430B Autobalance Bridge electrode.

Take `CC(=O)[O-].CCCCn1cc[n+](C)c1` [1-butyl-3-methylimidazolium acetate]: the viscosity is 288.8 ± 12 mPa·s (303.15 K); 149.9 ± 4.2 mPa·s (313.15 K); 86.13 ± 1.5 mPa·s (323.15 K); 53.43 ± 0.58 mPa·s (333.15 K); 35.33 ± 0.44 mPa·s (343.15 K). The electrical conductivity (303.15 K) is 0.0731 ± 0.00074 S/m; the electrical conductivity (308.15 K) was found to be 0.1014 ± 0.001 S/m; the electrical conductivity (313.15 K) amounted to 0.136 ± 0.0014 S/m; the electrical conductivity (318.15 K) is 0.178 ± 0.0018 S/m; the electrical conductivity (323.15 K) came to 0.229 ± 0.0023 S/m; the electrical conductivity (328.15 K) was 0.2902 ± 0.0029 S/m. Moreover, the electrical conductivity came out at 0.36 ± 0.0036 S/m (333.15 K), 0.44 ± 0.0044 S/m (338.15 K) and 0.5319 ± 0.0053 S/m (343.15 K).
For `CCCC(=O)[O-].CCCC[n+]1ccn(C)c1` [3-butyl-1-methyl-1H-imidazolium butanoate], the viscosity runs as follows: (303.15 K) 364.3 ± 16 mPa·s; (313.15 K) 193.1 ± 6.3 mPa·s; (323.15 K) 111.6 ± 2.4 mPa·s; (333.15 K) 69.24 ± 0.9 mPa·s; (343.15 K) 45.43 ± 0.58 mPa·s. Moreover, the electrical conductivity turned out to be 0.04102 ± 0.00041 S/m (303.15 K); 0.0558 ± 0.00056 S/m (308.15 K); 0.0752 ± 0.00076 S/m (313.15 K); 0.0992 ± 0.001 S/m (318.15 K); 0.129 ± 0.0013 S/m (323.05 K); 0.165 ± 0.0017 S/m (328.15 K). In addition, the electrical conductivity was 0.208 ± 0.0021 S/m (333.15 K), 0.258 ± 0.0026 S/m (338.15 K) and 0.315 ± 0.0032 S/m (343.15 K).
Regarding `CCCC[n+]1ccn(C)c1.O=C[O-]` [3-butyl-1-methyl-1H-imidazolium formate], the viscosity reads like this: (303.15 K) 138.5 ± 3.4 mPa·s; (313.15 K) 80.53 ± 1.3 mPa·s; (323.15 K) 50.78 ± 0.53 mPa·s; (333.15 K) 34 ± 0.37 mPa·s; (343.15 K) 23.94 ± 0.27 mPa·s. Also, the electrical conductivity (303.15 K) amounted to 0.1909 ± 0.0019 S/m; the electrical conductivity (308.15 K) stood at 0.249 ± 0.0025 S/m; the electrical conductivity (313.15 K) was 0.319 ± 0.0032 S/m; the electrical conductivity (318.15 K) came to 0.4019 ± 0.004 S/m; the electrical conductivity (323.15 K) stood at 0.498 ± 0.005 S/m; the electrical conductivity (328.15 K) turned out to be 0.6125 ± 0.0061 S/m. The electrical conductivity by setting is: (333.15 K) 0.738 ± 0.0074 S/m; (338.15 K) 0.88 ± 0.0088 S/m; (343.15 K) 1.04 ± 0.01 S/m.
For the compound `CCC(=O)[O-].CCCC[n+]1ccn(C)c1` [3-butyl-1-methyl-1H-imidazolium propanoate], the viscosity is, setting by setting: (303.15 K) 325.7 ± 14 mPa·s; (313.15 K) 171.5 ± 5.2 mPa·s; (323.15 K) 99.27 ± 1.9 mPa·s; (333.15 K) 61.78 ± 0.72 mPa·s; (343.15 K) 40.75 ± 0.51 mPa·s. The electrical conductivity runs as follows: (303.15 K) 0.0703 ± 0.00071 S/m; (308.15 K) 0.0902 ± 0.00091 S/m; (313.15 K) 0.1201 ± 0.0012 S/m; (318.15 K) 0.156 ± 0.0016 S/m; (323.05 K) 0.198 ± 0.002 S/m; (328.15 K) 0.248 ± 0.0025 S/m. Moreover, the electrical conductivity by setting is: (333.15 K) 0.306 ± 0.0031 S/m; (338.15 K) 0.3716 ± 0.0037 S/m; (343.15 K) 0.447 ± 0.0045 S/m.
